According to US11684610B2, “Pharmaceutical composition including 1,2-naphthoquinone derivative compound for prevention or treatment of solid cancers or blood cancers” (YUNGJIN PHARM. CO., LTD., priority 2018, dated 2023):

Experiments:
KG1α cells = test: Cell viability in KG1α cells, WST assay; assay type: cell-based, human; details: 0.1 to 3 μM
Excerpt: (§1) The constructed cell lines were also diverse. Thus, in order to confirm the applicability to a wide range of therapeutic agents that are not therapeutic agents for specific types of acute leukemia, in the present invention, KG1α cells constructed by selecting only cells having a stem cell phenotype from KG1 cells, which are cell lines obtained from a person with acute myelogenous leukemia, were used. HL60 cells, which are cell lines obtained from a person with acute promyelocytic leukemia, and U937 cells, which are cell lines obtained from a person with histiocytic lymphoma, were used.
(§2) KG1α and HL60 cells were cultured in IMDM medium containing 20% FBS (fetal bovine serum), and U937 cells were cultured in RPMI 1640 medium containing 10% FBS. All cells were cultured in an incubator under conditions of 37° C. and 5% CO2, and subcultured once every 2 or 3 days and used in the experiment.
KG1α cells are cells resistant to idarubicin and cytarabine, which are the therapeutic agents for acute myeloid leukemia, and are refractory AML cells. KG1α cells cultured in Example 2-1 were cultured into a 96-well plate at 1×10^5 cells/well, and then cultured in an incubator at 37° C. and 5% CO2 for 16 hours or more for the stabilization of cells. […] At this time, DMSO was used as a control group. After 24 hours, each cell was treated with 10 μl of WST solution, reacted for 2 hours, and then absorbance was measured at 450 nm with a multi-scan machine, and the cell viability of KG1α cells was confirmed as shown in Table 4 below.

HL60 cells = test: Cell viability of HL60 cells, WST-1; assay type: cell-based, human; details: 24 hours, WST-1, FIG. 1A
Excerpt: as §1, §2
(§3) The HL60 cells or U937 cells cultured in Example 2-1 were inoculated into a 96-well plate at 1×10^5 cells/well, and then for the stabilization of cells, the cells were cultured in an incubator at 37° C. and 5% CO2 for 16 hours or more. Subsequently, the compound 1 synthesized in Example 1 was treated at concentrations of 0.1, 0.5 and 1 μM, respectively, and reacted for 24 hours. […] The absorbance was then measured at 450 nm with a multi-scan machine.

U937 cells = test: Cell viability of U937 cells, WST-1; assay type: cell-based, human; details: 24 hours, WST-1, FIG. 1B
Excerpt: as §1, §2, §3

[1] = system: acute myelogenous leukemia mouse model in which FLT3-ITD was overexpressed; test: Changes in monocyte cells in acute leukemia mouse model overexpressing FLT3-ITD; assay type: in vivo; details: 120 mg/kg in diet, 8 weeks, FACS, FIG. 4
Procedure: In order to confirm the change in the expression of the FLT3-ITD gene by Compound 1 of the present invention, peripheral blood and spleen were collected after 8 weeks from the animals of an experimental group in which Compound 1 of the present invention was mixed and administered in a diet at a concentration of 120 mg/kg using a mouse (jackson lab) that systemically overexpressed FLT3-ITD, and a control group to which only a solvent was administered (untreated group).
In the case of peripheral blood, cold 1×PBS was added to a small amount of blood, centrifuged, washed, to which RBC lysis buffer was added and reacted for 5 minutes at room temperature to remove red blood cells. […] The antibodies were reacted on ice at a ratio of 1:200 for 20 minutes, washed with 1×PBS, then resuspended with 1×PBS containing 1% FBS, and quantified by FACS, and shown in FIG. 4A.
In the case of the spleen, the cells were crushed on a mesh having a 40 μm hole, separated into single cells, and then washed with cold 1×PBS to which RBC lysis buffer was added and reacted at room temperature for 5 minutes to remove red blood cells. […] The antibodies were reacted on ice at a ratio of 1:200 for 20 minutes, washed with 1×PBS, resuspended in 1×PBS containing 1% FBS, and quantified by FACS, and shown in FIGS. 4B and 4C.

BCR-ABL fusion gene = test: Expression level of BCR-ABL fusion gene in K562 cells, western blot; assay type: cell-based, human; details: 0.5-2.5 μM, 6 hours, FIG. 5
Procedure: The BCR-ABL fusion gene, existing only in chronic myelogenous leukemia, generated and transmitted continuous cell growth signals to induce the growth of cancer cells. Thus, after chronic myeloid leukemia cells were treated with the compound of the present invention, western blot was used to confirm whether the expression level of the BCR-ABL fusion gene was reduced.
First, the K562 cells cultured in Example 4-1 were inoculated into a 60 mm plate at 5×10^6 cells/well, and then for the stabilization of cells, the cells were cultured in an incubator at 37° C. and 5% CO2 for 16 hours or more. The, the compound 1 was treated at concentrations of 0.5, 1, 1.5, 2 and 2.5 μM, respectively, and cultured for 6 hours, and then the cells were recovered. A protein extraction buffer (RIPA buffer) was added to the cells obtained in the above process, and reacted on ice for 30 minutes to break the cell membrane, which was centrifuged to remove a supernatant, and then the protein was extracted. The extracted protein was developed by electrophoresis using SDS-PAGE, and then transferred to the PVDF membrane. Then, the antibody related to the BCR-ABL fusion gene was reacted, and then the amount of the protein was confirmed using the ECL buffer, and Western blot results for the K562 cell line are shown in FIG. 5.

SMILES: CC(C)c1nc2c([nH]1)C(=O)C(=O)c1ccccc1-2 [compound 1]
- IC50 (KG1α cells; 24 hours): 500 nM
- IC50 (KG1α cells; Homo sapiens, KG-1, 24 h): 500 to 1000 nM
- cell killing effect (cell viability), HL60 cells (HL60 cells): concentration-dependent cell killing effects
- cell killing effect (cell viability), U937 cells (U937 cells): concentration-dependent cell killing effects
- suppression of proliferation of monocyte cells in peripheral blood and spleen [1]: excellent effect of suppressing the proliferation of monocyte cells
- expression level of the BCR-ABL fusion gene (BCR-ABL fusion gene): decreased in a concentration-dependent manner
- expression of phospho-bcr-abl (BCR-ABL fusion gene): also decreased
- expression of phospho-stat5 (BCR-ABL fusion gene): also decreased
